molecular target: T1, human MDM2 (GST-hMDM2 1-188), interaction with biotinylated-p53 (1-83) (Homo sapiens, UniProt Q00987); experiment: improved HTRF assay (HTRF2 assay), inhibition of HDM2-p53 interaction; type: binding; settings: 0.2 nM GST-hMDM2, 0.5 nM biotinylated-p53, 100 mM KF
T1 construct: Amino acid residues 1-188 of human MDM2 were expressed; made in house; host or cells: Escherichia coli
Outline: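 Time-resolved fluorescence (HTRF) read after >4 h equilibration with SA-XLent/anti-GST cryptate/KF detection reagents. Reaction: compound plus GST-hMDM2 for 20 min at room temperature, then E. coli-expressed biotinylated p53 residues 1-83 for 60 min, 2% DMSO final. Inhibition expressed versus nutlin-3.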

T1 sequence (Q00987 1-188): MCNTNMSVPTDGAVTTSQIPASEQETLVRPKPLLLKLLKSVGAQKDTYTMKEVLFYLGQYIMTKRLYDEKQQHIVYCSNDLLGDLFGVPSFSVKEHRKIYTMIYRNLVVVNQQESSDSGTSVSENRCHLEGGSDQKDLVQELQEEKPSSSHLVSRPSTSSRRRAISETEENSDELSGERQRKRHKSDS

First: CC[C@@H](CS(=O)(=O)C(C)(C)C)N1C(=O)[C@@H](C[C@@H](O)CO)O[C@H](c2cccc(Cl)c2)[C@H]1c1ccc(Cl)cc1 (single isomer, unassigned) [Example 374]
Second: CC[C@@H](CS(=O)(=O)C(C)(C)C)N1C(=O)[C@@H](CC(=O)O)O[C@H](c2cc(Cl)cc(Cl)c2)[C@H]1c1ccc(Cl)cc1 (single isomer, unassigned) [Example 148, 2-((2R,5R,6R)-5-(4-chlorophenyl)-6-(3,5-dichlorophenyl)-4-((S)-1-(tert-butylsulfonyl)butan-2-yl)-3-oxomorpholin-2-yl)acetic acid or 2-((2S,5R,6R)-5-(4-chlorophenyl)-6-(3,5-dichlorophenyl)-4-((S)-1-(tert-butylsulfonyl)butan-2-yl)-3-oxomorpholin-2-yl)acetic acid]
The IC50 of the first is 2.7-fold higher: 19 nM for the first, 7 nM for the second.

First: CC(C)(C#N)S(=O)(=O)C[C@H](C1CC1)N1C(=O)[C@@H](CC(=O)O)O[C@H](c2cccc(Cl)c2)[C@H]1c1ccc(Cl)cc1 (single isomer, unassigned) [Example 290, 2-((2R,5R,6R)-6-(3-Chlorophenyl)-5-(4-chlorophenyl)-4-((S)-2-((2-cyanopropan-2-yl)sulfonyl)-1-cyclopropylethyl)-3-oxomorpholin-2-yl)acetic acid or 2-((2S,5R,6R)-6-(3-chlorophenyl)-5-(4-chlorophenyl)-4-((S)-2-((2-cyanopropan-2-yl)sulfonyl)-1-cyclopropylethyl)-3-oxomorpholin-2-yl)acetic acid]
Second: O=C(O)C[C@H]1O[C@H](c2cccc(Cl)c2)[C@@H](c2ccc(Cl)cc2)N([C@H](CS(=O)(=O)c2ccncc2)C2CC2)C1=O (single isomer, unassigned) [Example 286, 2-((2R,5R,6R)-6-(3-Chlorophenyl)-5-(4-chlorophenyl)-4-((S)-1-cyclopropyl-2-(pyridin-4-ylsulfonyl)ethyl)-3-oxomorpholin-2-yl)acetic acid or 2-((2S,5R,6R)-6-(3-chlorophenyl)-5-(4-chlorophenyl)-4-((S)-1-cyclopropyl-2-(pyridin-4-ylsulfonyl)ethyl)-3-oxomorpholin-2-yl)acetic acid]
The IC50 of the first is lower: less than 1 nM for the first, 2 nM for the second.

First: O=C(O)C[C@H]1O[C@H](c2cccc(Cl)c2)[C@@H](c2ccc(Cl)cc2)N([C@H](CS(=O)(=O)N2CCc3cc(F)ccc32)C2CC2)C1=O (single isomer, unassigned) [Example 299, 2-((2R,5R,6R)-6-(3-Chlorophenyl)-5-(4-chlorophenyl)-4-((S)-1-cyclopropyl-2-((5-fluoroindolin-1-yl)sulfonyl)ethyl)-3-oxomorpholin-2-yl)acetic acid or 2-((2S,5R,6R)-6-(3-chlorophenyl)-5-(4-chlorophenyl)-4-((S)-1-cyclopropyl-2-((5-fluoroindolin-1-yl)sulfonyl)ethyl)-3-oxomorpholin-2-yl)acetic acid]
Second: NC(=O)C[C@H]1O[C@H](c2cccc(Cl)c2)[C@@H](c2ccc(Cl)cc2)N([C@H](CN(c2ccccc2)S(=O)(=O)C2CC2)C2CC2)C1=O (single isomer, unassigned) [Example 360, 2-((2R,5R,6R)-6-(3-Chlorophenyl)-5-(4-chlorophenyl)-4-((S)-1-cyclopropyl-2-(N-phenylcyclopropanesulfonamido)ethyl)-3-oxomorpholin-2-yl)acetamide or 2-((2S,5R,6R)-6-(3-chlorophenyl)-5-(4-chlorophenyl)-4-((S)-1-cyclopropyl-2-(N-phenylcyclopropanesulfonamido)ethyl)-3-oxomorpholin-2-yl)acetamide]
The IC50 of the first is 11-fold higher: 11 nM for the first, 1 nM for the second. The second is the more potent here.

`CC[C@@H](CS(=O)(=O)C(C)(C)C)N1C(=O)[C@@H](CC(=O)O)O[C@H](c2cc(Cl)cc(Cl)c2)[C@H]1c1ccc(Cl)cc1` (single isomer, unassigned) [Example 147, 2-((2R,5R,6R)-5-(4-chlorophenyl)-6-(3,5-dichlorophenyl)-4-((S)-1-(tert-butylsulfonyl)butan-2-yl)-3-oxomorpholin-2-yl)acetic acid or 2-((2S,5R,6R)-5-(4-chlorophenyl)-6-(3,5-dichlorophenyl)-4-((S)-1-(tert-butylsulfonyl)butan-2-yl)-3-oxomorpholin-2-yl)acetic acid] gave an IC50 of 6 nM.

Reference: patent US9376425B2, “Heterocyclic compounds as MDM2 inhibitors for the treatment of cancer” (AMGEN INC., priority 2011, dated 2016)
